Assay results from PubChem BioAssay AID1963437 (Molecular Pharmacology Branch, DTP, NCI, 2024).

Tested on: OVCAR-8 complex spheroid, growth inhibition
Test: Anticancer human tumor OVCAR-8 cell line growth inhibition [Asc];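 note: spheroids exposed to agents for 7 days before readout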;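 for viability, T/C: percent viability relative to DMSO vehicle wells taken as 100%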
Settings: for IC50: curve of first compound; for viability, T/C: stronger effect = lower value
Summary of the method: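 Tumor cells were grown as multicellular spheroids with stromal HUVEC and mesenchymal stem cells and treated singly or in combination. Concentrations fell in half-log steps from the clinical Cmax, or from 10 microM where none was known.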

[1] = second compound 0.00316 µM, first compound 0.00316 µM
[2] = second compound 0.00316 µM, first compound 0.01 µM
[3] = second compound 0.00316 µM, first compound 0.0316 µM
[4] = second compound 0.00316 µM, first compound 0.1 µM
[5] = second compound 0.01 µM, first compound 0.00316 µM
[6] = second compound 0.01 µM, first compound 0.01 µM
[7] = second compound 0.01 µM, first compound 0.0316 µM
[8] = second compound 0.01 µM, first compound 0.1 µM
[9] = second compound 0.0316 µM, first compound 0.00316 µM
[10] = second compound 0.0316 µM, first compound 0.01 µM
[11] = second compound 0.0316 µM, first compound 0.0316 µM
[12] = second compound 0.0316 µM, first compound 0.1 µM
[13] = second compound 0.1 µM, first compound 0.00316 µM
[14] = second compound 0.1 µM, first compound 0.01 µM
[15] = second compound 0.1 µM, first compound 0.0316 µM
[16] = second compound 0.1 µM, first compound 0.1 µM
[17] = second compound 0.316 µM, first compound 0.00316 µM
[18] = second compound 0.316 µM, first compound 0.01 µM
[19] = second compound 0.316 µM, first compound 0.0316 µM
[20] = second compound 0.316 µM, first compound 0.1 µM
[21] = second compound 1 µM, first compound 0.00316 µM
[22] = second compound 1 µM, first compound 0.01 µM
[23] = second compound 1 µM, first compound 0.0316 µM
[24] = second compound 1 µM, first compound 0.1 µM

COc1c(OCCCN2CCOCC2)ccc2c3n(c(=NC(=O)c4cnc(N)nc4)nc12)CCN3 + CNC(C)C(=O)NC1CN(S(=O)(=O)c2cccc(S(=O)(=O)N3CCC4CCC(C(=O)NC(c5ccccc5)c5ccccc5)N4C(=O)C(NC(=O)C(C)NC)C3)c2)CCC2CCC(C(=O)NC(c3ccccc3)c3ccccc3)N2C1=O
IC50 (second compound 0.00316 µM): > 1000 nM | IC50 (second compound 0.01 µM): > 1000 nM | IC50 (second compound 0.0316 µM): 915 nM | IC50 (second compound 0.1 µM): 730 nM | IC50 (second compound 0.316 µM): 563 nM | IC50 (second compound 1 µM): 326 nM | viability, T/C [1]: 110% | viability, T/C [2]: 94.7% | viability, T/C [3]: 131% | viability, T/C [4]: 137% | viability, T/C (second compound 0.00316 µM, first compound 0.316 µM): 126% | viability, T/C (second compound 0.00316 µM, first compound 1 µM): 73.1% | viability, T/C [5]: 99.5% | viability, T/C [6]: 105% | viability, T/C [7]: 113% | viability, T/C [8]: 149% | viability, T/C (second compound 0.01 µM, first compound 0.316 µM): 129% | viability, T/C (second compound 0.01 µM, first compound 1 µM): 64.4% | viability, T/C [9]: 99.6% | viability, T/C [10]: 92.7% | viability, T/C [11]: 107% | viability, T/C [12]: 133% | viability, T/C (second compound 0.0316 µM, first compound 0.316 µM): 135% | viability, T/C (second compound 0.0316 µM, first compound 1 µM): 44.7% | viability, T/C [13]: 82.5% | viability, T/C [14]: 92.9% | viability, T/C [15]: 101% | viability, T/C [16]: 115% | viability, T/C (second compound 0.1 µM, first compound 0.316 µM): 105% | viability, T/C (second compound 0.1 µM, first compound 1 µM): 31.6% | viability, T/C [17]: 87.5% | viability, T/C [18]: 77.3% | viability, T/C [19]: 98.7% | viability, T/C [20]: 113% | viability, T/C (second compound 0.316 µM, first compound 0.316 µM): 84.1% | viability, T/C (second compound 0.316 µM, first compound 1 µM): 16% | viability, T/C [21]: 92.9% | viability, T/C [22]: 90.4% | viability, T/C [23]: 111% | viability, T/C [24]: 92.5% | viability, T/C (second compound 1 µM, first compound 0.316 µM): 51.3% | viability, T/C (second compound 1 µM, first compound 1 µM): 4.42%

NC1CCC(NC2CC2c2ccccc2)CC1 (centres undefined) + CNC(C)C(=O)NC1CN(S(=O)(=O)c2cccc(S(=O)(=O)N3CCC4CCC(C(=O)NC(c5ccccc5)c5ccccc5)N4C(=O)C(NC(=O)C(C)NC)C3)c2)CCC2CCC(C(=O)NC(c3ccccc3)c3ccccc3)N2C1=O
IC50 (second compound 0.00316 µM): > 100 nM | IC50 (second compound 0.01 µM): > 100 nM | IC50 (second compound 0.0316 µM): > 100 nM | IC50 (second compound 0.1 µM): > 100 nM | IC50 (second compound 0.316 µM): > 100 nM | IC50 (second compound 1 µM): > 100 nM | viability, T/C (second compound 0.00316 µM, first compound 0.000316 µM): 117% | viability, T/C (second compound 0.00316 µM, first compound 0.001 µM): 106% | viability, T/C [1]: 102% | viability, T/C [2]: 90.9% | viability, T/C [3]: 99.4% | viability, T/C [4]: 87.1% | viability, T/C (second compound 0.01 µM, first compound 0.000316 µM): 118% | viability, T/C (second compound 0.01 µM, first compound 0.001 µM): 87.7% | viability, T/C [5]: 119% | viability, T/C [6]: 91.5% | viability, T/C [7]: 86.7% | viability, T/C [8]: 91.7% | viability, T/C (second compound 0.0316 µM, first compound 0.000316 µM): 93.9% | viability, T/C (second compound 0.0316 µM, first compound 0.001 µM): 112% | viability, T/C [9]: 96.3% | viability, T/C [10]: 98.5% | viability, T/C [11]: 101% | viability, T/C [12]: 107% | viability, T/C (second compound 0.1 µM, first compound 0.000316 µM): 79.2% | viability, T/C (second compound 0.1 µM, first compound 0.001 µM): 79.2% | viability, T/C [13]: 93.3% | viability, T/C [14]: 93% | viability, T/C [15]: 88.4% | viability, T/C [16]: 104% | viability, T/C (second compound 0.316 µM, first compound 0.000316 µM): 78.8% | viability, T/C (second compound 0.316 µM, first compound 0.001 µM): 86.6% | viability, T/C [17]: 88.2% | viability, T/C [18]: 80% | viability, T/C [19]: 82.8% | viability, T/C [20]: 87.2% | viability, T/C (second compound 1 µM, first compound 0.000316 µM): 77.9% | viability, T/C (second compound 1 µM, first compound 0.001 µM): 79.3% | viability, T/C [21]: 94% | viability, T/C [22]: 74.7% | viability, T/C [23]: 85.3% | viability, T/C [24]: 85.7%
